Consider 2 compounds from article PMC8148385, “A robust photoluminescence screening assay identifies uracil-DNA glycosylase inhibitors against prostate cancer” (Chemical Science, 2020).

Like-named read-outs stand apart in the source and are kept apart here.

Assay [1] concerns the target T1, uracil-DNA glycosylase (UDG) (Escherichia coli, UniProt P12295).
T1 construct: gene ung
Briefly: TRES G-quadruplex/iridium probe UDG activity assay with commercial UDG; also fluorescence thermal shift (ca. […] °C). The class given is biochemical.

The target in assay [2] is T2, uracil-DNA glycosylase (UDG) (Mus musculus, UniProt P97931).
T2 construct: gene Ung; endogenous UDG in RM-1 cell lysates
Briefly: CETSA in RM-1 cell lysates. The class given is cell-based.

In assay [3] the target is T1, uracil-DNA glycosylase (UDG). Briefly: TRES G-quadruplex/iridium probe UDG activity assay with commercial UDG; also fluorescence thermal shift (ca. […] °C). The class given is biochemical. This is another data set of the same source.

T1 sequence (P12295 2-229): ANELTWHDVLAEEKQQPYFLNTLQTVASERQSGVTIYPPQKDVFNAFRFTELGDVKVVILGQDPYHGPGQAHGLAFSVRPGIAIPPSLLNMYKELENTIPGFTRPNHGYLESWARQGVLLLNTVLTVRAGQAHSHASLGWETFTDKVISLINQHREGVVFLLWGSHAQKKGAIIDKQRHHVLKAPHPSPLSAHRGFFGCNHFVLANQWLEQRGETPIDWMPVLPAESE
T2 sequence (P97931 whole entry): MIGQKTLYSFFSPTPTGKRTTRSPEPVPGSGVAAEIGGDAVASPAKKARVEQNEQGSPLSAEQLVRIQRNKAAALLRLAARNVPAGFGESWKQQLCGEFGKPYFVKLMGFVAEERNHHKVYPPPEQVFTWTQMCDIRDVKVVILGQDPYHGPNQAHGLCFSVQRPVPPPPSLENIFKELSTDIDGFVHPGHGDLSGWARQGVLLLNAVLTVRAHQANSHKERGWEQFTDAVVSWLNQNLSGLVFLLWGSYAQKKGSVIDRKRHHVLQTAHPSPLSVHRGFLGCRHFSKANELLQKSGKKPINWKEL

Turning to `O=C(N/N=C/c1ccc([N+](=O)[O-])o1)c1ccc(O)cc1` [S13, nifuroxazide], in assay [1], the IC50 (commonly the point on the concentration scale where inhibition reaches its midpoint) was about 4000 nM. The “CETSA in RM-1 cell lysates” value in assay [2] was “in the presence of compound A8 and S13, indicating that both of them directly engaged and stabilized UDG”.

With `O=[N+]([O-])c1ccc(S(=O)(=O)N2/C(=C\c3ccccc3)C(O)(c3ccccc3)c3ccccc32)cc1` (stereo not drawn) [A8], in assay [3], the IC50 was 1900 nM.
